Measured values taken from patent publication US20040005294A1, “IGFBP-3 in the diagnosis and treatment of cancer” (priority 2002, published 2004).

Legend:
JNK in 1799 cells = assay: Immune complex kinase assay for JNK; type: cell-based, human; settings: 10^−7 M
Procedure: (§1) Approximately 5×10^6 1799 cells were treated with 10^−7 M deguelin or 0.1% DMSO for various time periods in the absence of any additional stimulatory growth factors. The cells were then treated with 50 ng/mL IGF-I for 15 minutes to activate MAPK. Total cell extracts were prepared in lysis buffer (Lonardo et al. 2002), and ERK-1/2 or c-Jun N-terminal kinase (JNK) were immunoprecipitated from 100 μg of each cell extract using antibodies (1 μg) that recognize ERK1/2 or JNK (Santa Cruz Biotechnology) and protein-A sepharose beads (20 μL) (Amersham Pharmacia Biotech). Kinase assays were performed by incubating the beads with 30 μL of kinase buffer to which 5 μCi of [γ^32P]ATP (2000 cpm/pmol) and 1 μg of substrate (myelin basic protein [MBP; Calbiochem, La Jolla, Calif.] or GST-cJun [Santa Cruz Biotechnology]) were added, as previously described (Lee et al., 2002). The samples were suspended in Laemmli buffer, boiled for 5 min, and then analyzed by SDS-polyacrylamide gel clectrophoresis. The gel was dried and autoradiographed. Total cell lysates from Jurkat cells (Upstate Biotechnology, Inc.) and H1299 NSCLC treated with 50 ng/mL IGF-I for 15 min were used as positive controls. Changes in the level of phosphorylation in MBP or GST-cJun reflect changes in Erk1/2 and JNK activity, respectively.

HB56B cells = assay: MTT proliferation assay, HB56B cells; type: cell-based, human; settings: 10^−9 M to 10^−7 M, 1-3 days
Procedure: (§2) To measure the effects of deguelin on cell proliferation, NHBE, 1799, 1198, 1170-1, and HB56B cells were plated at concentrations of 2×10^3 to 4×10^3 cells/well in 96-well plates. The next day, cells were treated with either 0.1% DMSO as a diluent control or various concentrations of deguelin (final DMSO concentration=0.1%). At the end of the assay time period, cell proliferation was measured by the 3-(4,5-dimethylthiazol-2-yl)-2,5-diphenyltetrazolium bromide (MTT) assay as described (Lee et al., 2002). Six replicate wells were used for each analysis, and data from replicate wells are presented as means with 95% confidence intervals (CIs). For some experiments, the drug concentration required to inhibit cell growth by 50% (IC50) was determined by interpolation from dose-response curves. At least three independent experiments were performed.

squamous HBE cells [1] = assay: MTT proliferation assay, squamous HBE cells; type: cell-based, human; settings: 1 day
ERK1/2 in 1799 cells = assay: Immune complex kinase assay for ERK1/2; type: cell-based, human; settings: 10^−7 M, 0-24 h, then 50 ng/mL IGF-I for 15 min
Procedure: as §1

1799 cells = assay: MTT proliferation assay, 1799 cells; type: cell-based, human
Procedure: as §2
To determine whether deguelin-induced antiproliferative effects on premalignant HBE cells were mediated through the inhibition of the PI3K/Akt pathway, 2×10^5 1799 cells/well or 1×10 ^6 squamous HBE cells/well in six-well plates were infected with 5×10 ^3 particles/cell of a control virus (Ad5CMV) or with 1×10^3 or 5×10^3 particles/cell of Ad5CMV-MyrAkt-HA, an adenoviral vector that expresses a constitutively active Akt. (MyrAkt) in KSFM. After 1 day of infection, cells were treated with 10^−7M or 10^−6M deguelin, 2×10^−6 M or 4×10^−6M N-(4-hydroxyphenyl)retinamide (4-HPR), or 0.1% DMSO as a control and then incubated for 1 or 2 days. Apoptosis was analyzed using the APO-BrdU staining kit for TUNEL, Western blot analyses for caspase-3, and the cleavage of PARP.

NHBE cells [2] = assay: MTT proliferation assay, NHBE cells (deguelin); type: cell-based, human; settings: 10^−9 M to 10^−7 M
Procedure: as §2

NHBE cells [3] = assay: Cell cycle analysis by flow cytometry, NHBE cells; type: cell-based, human; settings: 10^−7 M, 3 days
Procedure: NHBE and 1799 cells were plated at a concentration of 2×10^5 cells/well in six-well plates. The next day, cells were treated with deguelin (various concentrations) or DMSO (0.1%) for 3 days to achieve maximal antiproliferative effects (determined from growth curves). All cells (nonadherent and adherent) were harvested, fixed with 1% paraformaldehyde and 70% ethanol, stained with 50 μg/mL propidium iodide, and subjected to flow cytometric analysis to determine the percentage of cells in specific phases of the cell cycle (G1, S, and G2/M) as described (Sun et al., 1997). Flow cytometric analysis was performed using a Coulter EPICS Profile II flow cytometer (Coulter Corp., Miami, Fla.) equipped with a 488-nm argon laser. Approximately 10 000 events (cells) were evaluated for each sample. Two independent experiments were performed and one is presented.

[4] = system: premalignant and malignant HBE cell lines; assay: MTT proliferation assay, premalignant and malignant HBE cell lines; type: cell-based; settings: Homo sapiens, range tested 10^−9 M to 10^−7 M, read-out: IC50 (growth inhibition)
Procedure: as §2

squamous HBE cells [5] = assay: Immunoblot of pAkt, pGSK-3β, caspase-3 and PARP, squamous HBE cells; type: cell-based, human
Procedure: Whole cell lysates from 1×10^6 cells were prepared in lysis buffer as described (Lonardo et al., 2002). Equivalent amounts of protein were resolved by sodium dodecyl sulfate (SDS)-polyacrylamide gels (7.5%-12%) and transferred to a nitrocellulose membrane. After the membrane was blocked in Tris-buffered saline (TBS) containing 0.05% Tween 20 (TBST) and 5% (w/v) nonfat powdered milk, the membrane was incubated with primary antibody at the appropriate dilution in TBS-5% nonfat milk at 4° C. for 16 h. The membrane was then washed multiple times with TBST and incubated with the appropriate horseradish peroxidaseconjugated secondary antibody for 1 h at room temperature. The protein-antibody complexes were detected by enhanced chemilurminescence (ECL kit; Amersham, Arlington Heights, Ill.), according to the manufacturer's recommended protocol.
To determine whether deguelin-induced antiproliferative effects on premalignant HBE cells were mediated through the inhibition of the PI3K/Akt pathway, 2×10^5 1799 cells/well or 1×10 ^6 squamous HBE cells/well in six-well plates were infected with 5×10 ^3 particles/cell of a control virus (Ad5CMV) or with 1×10^3 or 5×10^3 particles/cell of Ad5CMV-MyrAkt-HA, an adenoviral vector that expresses a constitutively active Akt. […] Apoptosis was analyzed using the APO-BrdU staining kit for TUNEL, Western blot analyses for caspase-3, and the cleavage of PARP.

In the case of `COc1cc2c(cc1OC)[C@@H]1C(=O)c3ccc4c(c3O[C@@H]1CO2)C=CC(C)(C)O4` [deguelin, Deguelin], the JNK activity (JNK in 1799 cells) is reported as “not affected”, the “effect on growth of HB56B cells” value (HB56B cells) is reported as “Dose- and time-dependent growth-inhibitory effects” and the “proliferation of control squamous HBE cells” value (squamous HBE cells [1]; 10^−7 M or 10^−6 M) is reported as “decreased proliferation of control squamous HBE cells in a dose-dependent manner”. The “growth as percent of untreated cells” value (squamous HBE cells [1]; squamous HBE cells overexpressing constitutively active Akt, 10^−7 M to 10^−6 M) was “approximately 95%”, the ERK1/2 activity (ERK1/2 in 1799 cells) was “no discernible effect” and the “reversibility of effects on cell growth” value (1799 cells; 10^−7 M for 1, 2 or 3 days, then 5 days without deguelin) was “irreversible”. The “decrease in cell growth” value (1799 cells; 10^−7 M, 1 day) was 67.1%, the effect on growth (1799 cells; 1799 cells infected with Ad5CMV-MyrAkt-HA, 10^−6 M) was “did not decrease the growth” and the “decrease in growth relative to untreated control” value (1799 cells; 1799 cells uninfected or infected with 5×10^3 particles/cell Ad5CMV, 10^−7 M, 2 days) was 54%. The activity at 0.1 µM (1799 cells; Homo sapiens, read-out: growth as percent of control cell growth) was 85%, the “effect on growth of NHBE cells” value (NHBE cells [2]) was “minimal effect” and the cell cycle distribution (NHBE cells [3]) was “No detectable cell cycle changes”. The IC50 [4] was under 10 nM, the “levels of pAkt and pGSK-3β” value (squamous HBE cells [5]) was “decreased the levels of pAkt and pGSK-3β in a time-dependent manner” and the PARP cleavage (squamous HBE cells [5]; 10^−9 M to 10^−7 M, 1 day) was “increased PARP cleavage”.
